target: T1, human orexin type 2 receptor (Homo sapiens, UniProt O43614); assay: Measurement of orexin type 2 receptor agonist activity (calcium fluorescence, Fluo-4 AM, FDSS) in CHO cells forcibly expressing human OX2 receptor; assay type: cell-based; conditions: test compound 3 μM, DMSO = 0%, orexin A (human) 10 nM = 100%
T1 construct: expressed in transfected cells
T1 sequence (O43614 1-444): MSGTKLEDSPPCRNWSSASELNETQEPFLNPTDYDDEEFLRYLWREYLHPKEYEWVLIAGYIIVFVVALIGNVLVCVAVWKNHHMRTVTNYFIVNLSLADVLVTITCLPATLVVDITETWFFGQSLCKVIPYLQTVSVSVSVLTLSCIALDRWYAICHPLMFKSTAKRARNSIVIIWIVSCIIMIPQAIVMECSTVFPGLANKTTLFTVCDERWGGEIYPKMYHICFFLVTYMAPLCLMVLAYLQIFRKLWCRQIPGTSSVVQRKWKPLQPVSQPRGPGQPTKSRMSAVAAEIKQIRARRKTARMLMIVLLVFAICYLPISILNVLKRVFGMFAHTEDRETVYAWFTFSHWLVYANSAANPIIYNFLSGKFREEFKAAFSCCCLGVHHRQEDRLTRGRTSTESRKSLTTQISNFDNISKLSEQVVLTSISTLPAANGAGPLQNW
Method in brief: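 CHO-dhfr cells stably expressing human OX2 receptor, loaded with Fluo-4 AM plus probenecid for 30 min at 37 °C, then 30 min at room temperature. Calcium fluorescence read for about 2 min 40 s after compound addition. Activity (%) scaled between DMSO (0%) and 10 nM human orexin A (100%).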

0X2R agonist activity (3 μM, %) [%] | Structure (SMILES)
93 | CC(C)n1cnc2c(c1=O)[C@@H](Cc1cccc(-c3ccccc3)c1F)[C@@H](NS(=O)(=O)C1CC1)CC2 [Example 176, N-[(5R,6S)-5-[(2-fluoro[1,1′-biphenyl]-3-yl)methyl]-4-oxo-3-(propan-2-yl)-3,4,5,6,7,8-hexahydroquinazolin-6-yl]cyclopropanesulfonamide]
95 | CC(C)n1cnc2c(c1=O)[C@@H](Cc1cccc(-c3cccc(F)c3)c1F)[C@@H](NS(=O)(=O)C1CC1)CC2 [Example 172, N-[(5R,6S)-5-[(2,3′-difluoro[1,1′-biphenyl]-3-yl)methyl]-4-oxo-3-(propan-2-yl)-3,4,5,6,7,8-hexahydroquinazolin-6-yl]cyclopropanesulfonamide]
94 | CC(C)n1cnc2c(c1=O)[C@@H](Cc1cccc(-c3cc(F)cc(F)c3)c1F)[C@@H](NS(=O)(=O)C1CC1)CC2 [Example 195, N-{(5R,6S)-4-oxo-3-(propan-2-yl)-5-[(2,3′,5′-trifluoro[1,1′-biphenyl]-3-yl)methyl]-3,4,5,6,7,8-hexahydroquinazolin-6-yl}cyclopropanesulfonamide]
90 | CCc1ccc2n(c1=O)[C@@H](Cc1cccc(-c3cccc(F)c3)c1F)[C@@H](NC(=O)C(=O)N(C)C)CC2 (relative stereo) [Example 43, rel-N~2~-{(3S,4S)-4-[(2,3′-difluoro[1,1′-biphenyl]-3-yl)methyl]-7-ethyl-6-oxo-1,3,4,6-tetrahydro-2H-quinolizin-3-yl}-N~1~,N~1~-dimethylethanediamide]
100 | Cc1ccc2n(c1=O)[C@@H](Cc1csc(-c3cccc(F)c3)n1)[C@@H](NS(C)(=O)=O)CC2 (racemic) [Example 64, rac-N-[(3S,4S)-4-{[2-(3-fluorophenyl)-1,3-thiazol-4-yl]methyl}-7-methyl-6-oxo-1,3,4,6-tetrahydro-2H-quinolizin-3-yl]methanesulfonamide]
86 | CC(C)n1cc2n(c1=O)[C@@H](Cc1cccc(-c3ccccc3)c1)[C@@H](NS(C)(=O)=O)CC2 (racemic) [Example 203, rac-N-[(5S,6S)-5-[([1,1′-biphenyl]-3-yl)methyl]-3-oxo-2-(propan-2-yl)-2,3,5,6,7,8-hexahydroimidazo[1,5-a]pyridin-6-yl]methanesulfonamide]
101 | CCn1ccc2c(c1=O)[C@@H](Cc1cccc(-c3cccc(C)c3)c1F)[C@@H](NS(C)(=O)=O)CC2 (racemic) [Example 93, rac-N-{(7S,8R)-2-ethyl-8-[(2-fluoro-3′-methyl[1,1′-biphenyl]-3-yl)methyl]-1-oxo-1,2,5,6,7,8-hexahydroisoquinolin-7-yl}methanesulfonamide]
96 | CCS(=O)(=O)N[C@H]1CCc2ncn(C(C)C)c(=O)c2[C@H]1Cc1cccc(-c2cccc(F)c2)c1 (racemic) [Example 81, rac-N-[(5R,6S)-5-[(3′-fluoro[1,1′-biphenyl]-3-yl)methyl]-4-oxo-3-(propan-2-yl)-3,4,5,6,7,8-hexahydroquinazolin-6-yl]ethanesulfonamide]
90 | CC(C)n1ccc2c(c1=O)[C@@H](Cc1cccc(-c3ccccc3)c1)[C@@H](NS(C)(=O)=O)CC2 (racemic) [Example 52, rac-N-[(7S,8R)-8-[([1,1′-biphenyl]-3-yl)methyl]-1-oxo-2-(propan-2-yl)-1,2,5,6,7,8-hexahydroisoquinolin-7-yl]methane sulfonamide]
92 | CN1CC[C@@H]2CC[C@H](NS(C)(=O)=O)[C@H](Cc3cccc(-c4ccccc4)c3)N2C1=O (racemic) [Example 62, rac-N-{(4aS,7S,8S)-8-[([1,1′-biphenyl]-3-yl)methyl]-2-methyl-1-oxooctahydro-1H-pyrido[1,2-c]pyrimidin-7-yl}methanesulfonamide]
100 | Cc1cccc(-c2cccc(C[C@@H]3c4c(ncn(C(C)C)c4=O)CC[C@@H]3NS(C)(=O)=O)c2)c1F (racemic) [Example 108, rac-N-[(5R,6S)-5-[(2′-fluoro-3′-methyl[1,1′-biphenyl]-3-yl)methyl]-4-oxo-3-(propan-2-yl)-3,4,5,6,7,8-hexahydroquinazolin-6-yl]methanesulfonamide]
105 | CCn1ccc2c(c1=O)[C@@H](Cc1cccc(-c3cc(F)cc(C)c3F)c1)[C@@H](NS(C)(=O)=O)CC2 (racemic) [Example 127, rac-N-{(7S,8R)-8-[(2′,5′-difluoro-3′-methyl[1,1′-biphenyl]-3-yl)methyl]-2-ethyl-1-oxo-1,2,5,6,7,8-hexahydroisoquinolin-7-yl}methanesulfonamide]
97 | CC1OCC2CCC(NS(C)(=O)=O)C(Cc3cccc(-c4cccc(F)c4)c3)N2C1=O (racemic) [Example 165, rac-N-{(3R,6S,7S,9aR)-6-[(3′-fluoro[1,1′-biphenyl]-3-yl)methyl-3-methyl-4-oxooctahydropyrido[2,1-c][1,4]oxazin-7-yl}methanesulfonamide]
94 | CC(C)n1cnc2c(c1=O)[C@@H](Cc1cccc(-c3cc(F)cc(F)c3)c1)[C@@H](NS(=O)(=O)C1(F)CC1)CC2 (relative stereo) [Example 187, rel-N-[(5R,6S)-5-[(3′,5′-difluoro[1,1′-biphenyl]-3-yl)methyl]-4-oxo-3-(propan-2-yl)-3,4,5,6,7,8-hexahydroquinazolin-6-yl]-1-fluorocyclopropane-1-sulfonamide]
97 | Cc1ccc(=O)n2c1CC[C@H](NS(C)(=O)=O)[C@@H]2Cc1cccc(-c2ccccc2)c1 (racemic) [Example 8, rac-N-{(3S,4S)-4-[([1,1′-biphenyl]-3-yl)methyl]-9-methyl-6-oxo-1,3,4,6-tetrahydro-2H-quinolizin-3-yl}methanesulfonamide]
107 | Cc1cc2n(c(=O)c1)[C@@H](Cc1cccc(-c3ccccc3)c1)[C@@H](NS(C)(=O)=O)CC2 (racemic) [Example 14, rac-N-{(3S,4S)-4-[([1,1′-biphenyl]-3-yl)methyl]-8-methyl-6-oxo-1,3,4,6-tetrahydro-2H-quinolizin-3-yl}methanesulfonamide]
101 | CC(C)N1CNC2=C(C1=O)[C@@H](Cc1cccc(-c3ccccc3)c1)[C@@H](NS(C)(=O)=O)CC2(F)F (racemic) [Example 162, rac-N-[(5R,6S)-5-[([1,1′-biphenyl]-3-yl)methyl]-8,8-difluoro-4-oxo-3-(propan-2-yl)-1,2,3,4,5,6,7,8-octahydroquinazolin-6-yl]methanesulfonamide]
99 | [2H]C([2H])([2H])C([2H])(n1cnc2c(c1=O)C(Cc1cccc(-c3ccccc3)c1F)C(NS(=O)(=O)C1CC1)CC2)C([2H])([2H])[2H] [Example 212, rel-N-{(5R,6S)-5-[(2-fluoro[1,1′-biphenyl]-3-yl)methyl]-4-oxo-3-[(~2~H_7_)propan-2-yl]-3,4,5,6,7,8-hexahydroquinazolin-6-yl}cyclopropanesulfonamide]
90 | CC(C)n1cnc2c(c1=O)C(Cc1cccc(-c3cccc(F)c3)c1)C(NS(=O)(=O)C1(F)CC1)CC2 (stereo not drawn) [Example 186, rel-1-fluoro-N-{5-[(3′-fluoro[1,1′-biphenyl]-3-yl)methyl]-4-oxo-3-(propan-2-yl)-3,4,5,6,7,8-hexahydroquinazolin-6-yl}cyclopropane-1-sulfonamide]
93 | CC(C)n1cnc2c(c1=O)[C@@H](Cc1csc(-c3ccccc3F)n1)[C@@H](NS(=O)(=O)C1(F)CC1)CC2 (relative stereo) [Example 156, rel-1-fluoro-N-[(5R,6S)-5-{[2-(2-fluorophenyl)-1,3-thiazol-4-yl]methyl}-4-oxo-3-(propan-2-yl)-3,4,5,6,7,8-hexahydroquinazolin-6-yl]cyclopropane-1-sulfonamide]

test system: mice (C57BL/6J mice); assay: Evaluation of wake-promoting effects by EEG and EMG in mice; assay type: in vivo; conditions: 30 mg/kg, p.o., at zeitgeber time 5; time spent in wakefulness for 2 h after administration; male mice
Experimental: The wake-promoting effects were evaluated by measuring the electroencephalogram (EEG) and electromyogram (EMG) in […] mice (C57BL/6Jmice, CLEA Japan Inc., Tokyo, Japan). Under pentobarbital sodium anesthesia (50 mg/kg, intraperitoneal, Somnopentyl®, Kyoritsu Seiyaku, Tokyo, Japan), […] male […] mice were surgically implanted with EEG electrode and EMG electrode. Bilateral EEG leads (Biotex, Kyoto, Japan) were stereotaxically positioned at the parietal area and secured to the cranium with stainless-steel screws in contact with the dura. Bilateral EMG leads (Biotex) were implanted into the back cervical muscles. After at least a 1-week recovery period in home cages, the […] mice were habituated to the recording chamber located in an electrically shielded soundproof room. After habituated, the cortical EEG and EMG signals were recorded using VitalRecorder® (Kissei Comtec Co., Ltd., Nagano, Japan). The signals were automatically scored in 4 sec epochs by a sleep scoring system (SleepSign®, Kissei Comtec Co., Ltd.). Test compound (30 mg/kg, Table 3X-1) dissolved in a mixed solution containing 10% DMSO, 10% Cremophor EL, 20% PEG400 and 60% H2O, or vehicle (i.e., a mixed solution containing 10% DMSO, 10% Cremophor EL, 20% PEG400 and 60% H2O) was administered orally (p.o.) to the […] mice at zeitgeber time 5 in a volume of 10 mL/kg. The EEG and EMG recordings were performed for 2 h after the compound administration. The time spent in wakefulness for 2 h after administration (% of vehicle treatment) was calculated by using SleepSign.

Structure (SMILES) | Wakefulness time (% of vehicle treatment) (Mean, n = 3)
CC(C)n1cnc2c(c1=O)[C@@H](Cc1cccc(-c3ccccc3)c1F)[C@@H](NS(=O)(=O)C1CC1)CC2 [Example 176, N-[(5R,6S)-5-[(2-fluoro[1,1′-biphenyl]-3-yl)methyl]-4-oxo-3-(propan-2-yl)-3,4,5,6,7,8-hexahydroquinazolin-6-yl]cyclopropanesulfonamide] | 204.27 % of vehicle treatment
CC(C)n1cnc2c(c1=O)[C@@H](Cc1cccc(-c3cccc(F)c3)c1F)[C@@H](NS(=O)(=O)C1CC1)CC2 [Example 172, N-[(5R,6S)-5-[(2,3′-difluoro[1,1′-biphenyl]-3-yl)methyl]-4-oxo-3-(propan-2-yl)-3,4,5,6,7,8-hexahydroquinazolin-6-yl]cyclopropanesulfonamide] | 201.32 % of vehicle treatment
CC(C)n1cnc2c(c1=O)[C@@H](Cc1cccc(-c3cc(F)cc(F)c3)c1F)[C@@H](NS(=O)(=O)C1CC1)CC2 [Example 195, N-{(5R,6S)-4-oxo-3-(propan-2-yl)-5-[(2,3′,5′-trifluoro[1,1′-biphenyl]-3-yl)methyl]-3,4,5,6,7,8-hexahydroquinazolin-6-yl}cyclopropanesulfonamide] | 183.08 % of vehicle treatment

Source: patent publication US12071434B2, “Heterocyclic compound” (Takeda Pharmaceutical Company Limited, priority 2018, dated 2024)
